Laboratory results from US20020137929A1, “1 - (3-heterocyclylphenyl) isothiourea, -isourea, -guanidine and -amidine herbicidal agents” (Intellectual Property Department, BASF Aktiengesellschaft, priority 1998, published 2002).

What was measured:
[1] = tested on: ECHORC (Watergrass (Calif.)); experiment: Postemergence weed control under flooded paddy conditions; assay type: in vivo, Echinochloa oryzoides; conditions: postemergence weeds, rated 3 to 4 weeks after treatment
Method in brief: (§1)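 Flood-water application, about 0.0313–0.500 kg/ha a.i. in aqueous/acetone 50/50 v/v; water depth 1.5–3 cm throughout. Weeds 3–5 cm, rice 1.5–2.5 leaf. Greenhouse; 0–9 visual rating vs control at 3–4 wk.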

ORYSAT (Rice, Tebonnet) = experiment: Preemergence herbicidal evaluation; assay type: in vivo, Oryza sativa, (L.) Tebonnet; conditions: rated 4-5 weeks after treatment
Method in brief: (§2)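 Sown cups got a single aqueous acetone spray of test compound (roughly 0.0156–0.500 kg/ha) before seedlings emerged. Evaluation, 4–5 weeks on, used a 0–9 visual scale covering plant stand, vigor, size, malformation, chlorosis and general appearance compared with controls.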

CYPSE (Flatsedge) = experiment: Preemergence weed control under flooded paddy conditions; assay type: in vivo, Cyperus serotinus; conditions: rated 3-4 weeks after treatment
Method in brief: (§3)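 First, seeds or propagules go into the top 0.5 cm of silt loam; next, water is held 1.5 to 3 cm over the soil; then compound (50/50 acetone/water) is pipetted into it at about 0.0313 to 0.500 kg/ha; finally plants are rated visually 0-9 after three to four weeks.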

[2] = tested on: TRZAWR (Wheat, Winter, cv Riband); experiment: Postemergence herbicidal evaluation; assay type: in vivo, Triticum aestivum; conditions: postemergence
Method in brief: (§4)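 Herbicidal effect was judged by eye on a 0–9 scale covering stand, vigor, deformity, size and chlorosis, compared with controls, four to five weeks after seedlings about two weeks old were sprayed (40 psi, ~0.0156–0.500 kg/ha).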

[3] = tested on: SAGPY (Arrowhead (Pygmaea)); experiment: Preemergence weed control under flooded paddy conditions; assay type: in vivo, Sagittaria pygmaea; conditions: rated 3-4 weeks after treatment
Method in brief: as §3

[4] = tested on: GLXMAW (Soybean, Williams); experiment: Postemergence herbicidal evaluation; assay type: in vivo, Glycine max, (L.) Merr. cv Williams; conditions: postemergence
Method in brief: as §4

[5] = tested on: ECHORC (Watergrass (Calif.)); experiment: Preemergence weed control under flooded paddy conditions; assay type: in vivo, Echinochloa oryzoides; conditions: rated 3-4 weeks after treatment
Method in brief: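 Visual injury scored 0-9 against control three to four weeks post-treatment, greenhouse-grown. Application: acetone/water (50/50) solutions dosed directly into flood water (1.5-3 cm over silt loam, planted top 0.5 cm), roughly 0.0313 to 0.500 kg/ha active ingredient.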

CASOB (Sicklepod) = experiment: Postemergence herbicidal evaluation; assay type: in vivo, Cassia obtusifolia; conditions: postemergence
Method in brief: as §4

SETVI (Foxtail, Green) = experiment: Preemergence herbicidal evaluation; assay type: in vivo, Setaria viridis; conditions: rated 4-5 weeks after treatment
Method in brief: as §2

AMBEL (Ragweed, Common) = experiment: Postemergence herbicidal evaluation; assay type: in vivo, Ambrosia artemisifolia; conditions: postemergence
Method in brief: as §4

GALAP (Galium) [6] = experiment: Preemergence herbicidal evaluation; assay type: in vivo, Galium aparine; conditions: rated 4-5 weeks after treatment
Method in brief: as §2

[7] = tested on: SAGPY (Arrowhead (Pygmaea)); experiment: Postemergence weed control under flooded paddy conditions; assay type: in vivo, Sagittaria pygmaea; conditions: postemergence weeds, rated 3 to 4 weeks after treatment
Method in brief: as §1

GALAP (Galium) [8] = experiment: Postemergence herbicidal evaluation; assay type: in vivo, Galium aparine; conditions: postemergence
Method in brief: as §4

## COC(=O)C(Cc1ccc(Cl)cc1)N1C(=O)CSC1=Nc1cc(-n2c(=O)cc(C(F)(F)F)n(C)c2=O)c(F)cc1Cl (racemic) [Compound 77, Methyl α-(p-chlorobenzyl)-2-{{2-chloro-5-[3,6-dihydro-3-methyl-2,6-dioxo-4-(trifluoromethyl)-1(2H)-pyrimidinyl]-4-fluorophenyl}imino}-4-oxo-3-thiazolidineacetate, DL-]
[1]; Rate 0.0313 kg/ha
  Herbicidal rating ECHORC: 9.0
[1]; Rate 0.0625 kg/ha
  Herbicidal rating ECHORC: 9.0
[1]; Rate 0.1250 kg/ha
  Herbicidal rating ECHORC: 9.0
[1]; Rate 0.2500 kg/ha
  Herbicidal rating ECHORC: 9.0
ORYSAT (Rice, Tebonnet); rate 0.0156 kg/ha
  Preemergence herbicidal rating ORYSAT: 0.0
ORYSAT (Rice, Tebonnet); rate 0.0313 kg/ha
  Preemergence herbicidal rating ORYSAT: 0.0
ORYSAT (Rice, Tebonnet); rate 0.0625 kg/ha
  Preemergence herbicidal rating ORYSAT: 0.0
ORYSAT (Rice, Tebonnet); rate 0.1250 kg/ha
  Preemergence herbicidal rating ORYSAT: 0.0
ORYSAT (Rice, Tebonnet); rate 0.2500 kg/ha
  Preemergence herbicidal rating ORYSAT: 0.0
CYPSE (Flatsedge); 0.0313 kg/ha
  CYPSE herbicidal effect rating: 0.0
CYPSE (Flatsedge); 0.0625 kg/ha
  CYPSE herbicidal effect rating: 0.0
CYPSE (Flatsedge); 0.1250 kg/ha
  CYPSE herbicidal effect rating: 0.0
CYPSE (Flatsedge); 0.2500 kg/ha
  CYPSE herbicidal effect rating: 4.0
[2]; rate 0.0158 kg/ha
  TRZAWR herbicidal rating: 3.0
[2]; rate 0.0315 kg/ha
  TRZAWR herbicidal rating: 2.5
[2]; rate 0.0630 kg/ha
  TRZAWR herbicidal rating: 3.0
[3]; 0.0313 kg/ha
  SAGPY herbicidal effect rating: 0.0
[3]; 0.0625 kg/ha
  SAGPY herbicidal effect rating: 0.0
[3]; 0.1250 kg/ha
  SAGPY herbicidal effect rating: 0.0
[3]; 0.2500 kg/ha
  SAGPY herbicidal effect rating: 0.0
[4]; rate 0.0158 kg/ha
  GLXMAW herbicidal rating: 3.5
[4]; rate 0.0315 kg/ha
  GLXMAW herbicidal rating: 5.0
[4]; rate 0.0630 kg/ha
  GLXMAW herbicidal rating: 5.0
[5]; 0.0313 kg/ha
  ECHORC herbicidal effect rating: 9.0
[5]; 0.0625 kg/ha
  ECHORC herbicidal effect rating: 9.0
[5]; 0.1250 kg/ha
  ECHORC herbicidal effect rating: 9.0
[5]; 0.2500 kg/ha
  ECHORC herbicidal effect rating: 9.0
CASOB (Sicklepod); rate 0.0158 kg/ha
  CASOB herbicidal rating: 1.0
CASOB (Sicklepod); rate 0.0315 kg/ha
  CASOB herbicidal rating: 1.0
CASOB (Sicklepod); rate 0.0630 kg/ha
  CASOB herbicidal rating: 1.0
SETVI (Foxtail, Green); rate 0.0156 kg/ha
  Preemergence herbicidal rating SETVI: 0.0
SETVI (Foxtail, Green); rate 0.0313 kg/ha
  Preemergence herbicidal rating SETVI: 0.0
SETVI (Foxtail, Green); rate 0.0625 kg/ha
  Preemergence herbicidal rating SETVI: 0.0
SETVI (Foxtail, Green); rate 0.1250 kg/ha
  Preemergence herbicidal rating SETVI: 0.0
SETVI (Foxtail, Green); rate 0.2500 kg/ha
  Preemergence herbicidal rating SETVI: 9.0
AMBEL (Ragweed, Common); rate 0.0158 kg/ha
  AMBEL herbicidal rating: 9.0
AMBEL (Ragweed, Common); rate 0.0315 kg/ha
  AMBEL herbicidal rating: 9.0
AMBEL (Ragweed, Common); rate 0.0630 kg/ha
  AMBEL herbicidal rating: 9.0
GALAP (Galium) [6]; rate 0.0156 kg/ha
  Preemergence herbicidal rating GALAP: 0.0
GALAP (Galium) [6]; rate 0.0313 kg/ha
  Preemergence herbicidal rating GALAP: 0.0
GALAP (Galium) [6]; rate 0.0625 kg/ha
  Preemergence herbicidal rating GALAP: 0.0
GALAP (Galium) [6]; rate 0.1250 kg/ha
  Preemergence herbicidal rating GALAP: 1.0
GALAP (Galium) [6]; rate 0.2500 kg/ha
  Preemergence herbicidal rating GALAP: 1.0
[7]; Rate 0.0313 kg/ha
  Herbicidal rating SAGPY: 0.0
[7]; Rate 0.0625 kg/ha
  Herbicidal rating SAGPY: 0.0
[7]; Rate 0.1250 kg/ha
  Herbicidal rating SAGPY: 0.0
[7]; Rate 0.2500 kg/ha
  Herbicidal rating SAGPY: 0.0
GALAP (Galium) [8]; rate 0.0158 kg/ha
  GALAP herbicidal rating: 1.0
GALAP (Galium) [8]; rate 0.0315 kg/ha
  GALAP herbicidal rating: 1.0
GALAP (Galium) [8]; rate 0.0630 kg/ha
  GALAP herbicidal rating: 7.0
